Data as given in paper PMC9933483, “Tail-Approach-Based Design and Synthesis of Coumarin-Monoterpenes as Carbonic Anhydrase Inhibitors and Anticancer Agents” (ACS Omega, 2023).

Legend:
PC-3 cell line = test: Cell cytotoxicity, MTT assay; format: cell-based; conditions: Homo sapiens, 24 h
HT-29 cell line = test: Cell cytotoxicity, MTT assay; format: cell-based, human; conditions: for IC50: Homo sapiens, HT-29, MTT, 24 h
HT-29 cells = test: Fluorescence microscopy, PI/Hoechst staining; format: cell-based, human; conditions: HT-29, 1.25 μM, 24 h
Description: HT-29 cells were stained with propidium iodide (PI) and Hoechst 33342 for observation of cell viability under the microscope. HT29 cells were treated with 14, 23, and 66 for 24 h at 1.25 μM concentration. After the treatment period cells were rinsed with PBS, fixed with ice-cold ethanol (95%) at −20 °C for 2 h, and then rinsed with PBS again. Cells were incubated with PI and Hoechst for 10 min and observed by using a fluorescence microscope (Zeiss Axio Observer Z1) with the appropriate excitation/detection filters.

CA IX [1] = test: Western blotting of CA IX protein expression in HT-29 cells; format: cell-based, human; conditions: western blot, hypoxia (200 μM CoCl2), 24 h, three doses
Description: (§1) CA IX and CA XII protein expressions were evaluated in treated and control HT-29 and MCF7 cells after hypoxia induction. Cells were seeded in a 6-well plate in DMEM/F12 (normoxic cells) or DMEM/F12 containing 200 μM CoCl2 (hypoxic and treated cells) in order to create hypoxia.[25] HT29 cells were treated with 14 (40, 10, and 1.25 μM), 23 (80, 20, and 1.25 μM), and 66 (80, 20, and 1.25 μM), and MCF7 cells were treated with 14 (40, 10, and 1.25 μM), 23 (80, 20, and 1.25 μM), and 63 (80, 20, and 1.25 μM) for 24 h at three different doses. After the treatment period, cells were washed with cold PBS and homogenized into Ripa cell lysis buffer (Santa Cruz, USA). Samples were prepared, electrophoresed, and transferred according to the literature.[25] The membranes were blocked in 5% fat-free milk (w/v) for 1 h at RT, incubated with the corresponding antibody at 4 °C overnight, and then incubated with the horseradish peroxidase (HRP)-labeled secondary antibody for 1 h at RT. The following antibodies were used: anti-CA IX (ab107257, Abcam), anti-CA XII (sc-374314, Santa Cruz), and anti-GAPDH (A19056, Abclonal). Finally, the membranes were stained with ECL reagents (LumiGLO, CST, USA), and then, imaging was performed with the Bio-Rad Chemidoc Imaging System. The bands were calculated with the Image Lab (Bio-Rad, USA) and analyzed with Graphpad Prism 9.00 (San Diego, CA, USA).

MCF-7 cell line = test: Cell cytotoxicity, MTT assay; format: cell-based, human; conditions: Homo sapiens, MCF7, 24 h
CA XII [2] = test: Western blotting of CA XII protein expression in MCF-7 cells; format: cell-based, human; conditions: western blot, hypoxia (200 μM CoCl2), 24 h, three doses
Description: as §1

CA IX [3] = test: Western blotting of CA IX protein expression in MCF-7 cells; format: cell-based, human; conditions: western blot, hypoxia (200 μM CoCl2), 24 h, three doses
Description: as §1

CA XII [4] = test: Western blotting of CA XII protein expression in HT-29 cells; format: cell-based, human; conditions: western blot, hypoxia (200 μM CoCl2), 24 h, three doses
Description: as §1

HEK293T cell line = test: Cell cytotoxicity, MTT assay; format: cell-based; conditions: Homo sapiens, HEK-293T, 24 h, healthy cell line
hCA IX = hCA IX (Homo sapiens, UniProt Q16790); test: biochemical

| Ki (hCA IX) [µM] | melting point [°C] | SMILES | IC50 (PC-3 cell line) [µM] | IC50 (HT-29 cell line) [µM] | apoptotic/dead cells by PI/Hoechst staining (HT-29 cells) | CA IX expression in HT-29 cells (CA IX [1]) | IC50 (MCF-7 cell line) [µM] | CA XII expression in MCF-7 cells (CA XII [2]) | CA IX expression in MCF-7 cells (CA IX [3]) | CA XII expression in HT-29 cells (CA XII [4]) | IC50 (HEK293T cell line) [µM] | selectivity on HT-29 (cancer vs healthy cells) relative to dox (HT-29 cell line; compared with dox) [fold] |
| --- | --- | --- | --- | --- | --- | --- | --- | --- | --- | --- | --- | --- |
|  |  | Cc1ccc(C(C)C)c(OCc2cn(CCCCOc3ccc4ccc(=O)oc4c3)nn2)c1 [Compound 14, 7-(4-(4-((2-Isopropyl-5-methylphenoxy)methyl)-1H-1,2,3-triazol-1-yl)butoxy)-2H-chromen-2-one] | 53.8 ± 23.4 | 25.1 ± 6.47 | increased apoptotic/dead cells | decreased | 2.48 ± 0.69 | decreased | decreased | decreased | 4.57 ± 0.33 |  |
| 0.0019 |  | Cc1ccc(C(C)C)cc1OCc1cn(CCCCCCOc2ccc3ccc(=O)oc3c2)nn1 [Compound 23, 7-((6-(4-((5-Isopropyl-2-methylphenoxy)methyl)-1H-1,2,3-triazol-1-yl)hexyl)oxy)-2H-chromen-2-one] | 9.4 ± 3.35 | 12.1 ± 3.63 | increased apoptotic/dead cells | decreased | 9.1 ± 3.93 | decreased | decreased | decreased | 8.82 ± 1.42 | 3 |
| 1.3 |  | C=CCc1ccc(OCCCCCCCCCCOc2ccc3ccc(=O)oc3c2)c(OC)c1 [Compound 66, 7-((10-(4-Allyl-2-methoxyphenoxy)decyl)oxy)-2H-chromen-2-one] | 25.6 ± 3.47 | 22 ± 5.63 | increased apoptotic/dead cells | decreased | 17.8 ± 2.76 |  |  | decreased | 18.3 ± 3.08 |  |
| 0.0025 | 59 to 60 | CC1CCC(C(C)C)C(OCc2cn(CCCCCCCCCCCCOc3ccc4ccc(=O)oc4c3)nn2)C1 (stereo not shown) [Compound 43, 7-((12-(4-(((2-Isopropyl-5-methylcyclohexyl)oxy)methyl)-1H-1,2,3-triazol-1-yl)dodecyl)oxy)-2H-chromen-2-one] | 32.3 ± 9.99 | 27.2 ± 6.18 |  |  | 77.2 ± 34.8 |  |  |  | 50.6 ± 8.63 |  |
|  |  | C=CCc1ccc(OCCCCCCOc2ccc3ccc(=O)oc3c2)c(OC)c1 [Compound 63, 7-((6-(4-Allyl-2-methoxyphenoxy)hexyl)oxy)-2H-chromen-2-one] | 36.4 ± 12.3 | > 200 |  |  | 3.91 ± 2.16 | decreased | decreased |  | 40.6 ± 12.1 |  |
